From PubChem BioAssay (NCI)
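1) Cells in 96-well plates. 2) Compound, 48 h, 5 concentrations. 3) Linear interpolation between surrounding doses. 4) Unreached endpoint = highest concentration. GI50: concentration for 50% inhibition of growth. TGI: total growth inhibition.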

How the values were obtained:
Experiment in all cases: growth of human tumour cells (NCI), 48 h
[1] = test system: SK-MEL-2 melanoma
[2] = test system: SNB-19 CNS
[3] = test system: MCF7 breast
[4] = test system: NCI/ADR-RES ovarian
[5] = test system: NCI-H522 lung
[6] = test system: HCC-2998 colon
[7] = test system: HOP-62 NSCLC
[8] = test system: M14 melanoma
[9] = test system: HCT-116 colon
[10] = test system: UACC-257 melanoma
[11] = test system: HT29 colon
[12] = test system: RXF 393 renal
[13] = test system: CCRF-CEM leukemia
[14] = test system: TK-10 renal
[15] = test system: PC-3 prostate
[16] = test system: NCI-H460 lung
[17] = test system: OVCAR-5 ovarian
[18] = test system: HL-60(TB) leukemia
[19] = test system: SF-539 CNS
[20] = test system: IGROV1 ovarian
[21] = test system: KM12 colon
[22] = test system: U251 CNS
[23] = test system: T-47D breast
[24] = test system: 786-0 renal
[25] = test system: OVCAR-3 ovarian
[26] = test system: SR leukemia
[27] = test system: LOX IMVI melanoma
[28] = test system: UO-31 renal
[29] = test system: HCT-15 colon
[30] = test system: OVCAR-8 ovarian
[31] = test system: SK-MEL-28 melanoma
[32] = test system: RPMI-8226 leukemia
[33] = test system: CAKI-1 renal
[34] = test system: OVCAR-4 ovarian
[35] = test system: NCI-H23 lung
[36] = test system: UACC-62 melanoma
[37] = test system: HOP-92 NSCLC
[38] = test system: ACHN renal
[39] = test system: K-562 leukemia
[40] = test system: DU-145 prostate
[41] = test system: SW-620 colon
[42] = test system: SF-268 CNS
[43] = test system: SNB-75 CNS
[44] = test system: HS 578T breast
[45] = test system: SF-295 CNS
[46] = test system: BT-549 breast
[47] = test system: A498 renal
[48] = test system: MDA-MB-231 breast
[49] = test system: EKVX NSCLC
[50] = test system: SK-MEL-5 melanoma
[51] = test system: SN12C renal
[52] = test system: A549 NSCLC
[53] = test system: MALME-3M melanoma
[54] = test system: MOLT-4 leukemia
[55] = test system: MDA-MB-435

Structure (SMILES): CN1CCN(CCOc2ccc(-c3cnc4c(-c5cccc(F)c5)cnn4c3)cc2)CC1
- GI50 [1]: 1980 nM
- TGI [1]: 4270 nM
- GI50 [2]: 1720 nM
- TGI [2]: 3800 nM
- GI50 [3]: 1510 nM
- TGI [3]: 3130 nM
- GI50 [4]: 2470 nM
- TGI [4]: 6140 nM
- GI50 [5]: 1730 nM
- TGI [5]: 3650 nM
- GI50 [6]: 1700 nM
- TGI [6]: 3280 nM
- GI50 [7]: 1720 nM
- TGI [7]: 3730 nM
- GI50 [8]: 1950 nM
- TGI [8]: 4340 nM
- GI50 [9]: 1790 nM
- TGI [9]: 3510 nM
- GI50 [10]: 2330 nM
- TGI [10]: 5710 nM
- GI50 [11]: 1510 nM
- TGI [11]: 3320 nM
- GI50 [12]: 1660 nM
- TGI [12]: 3220 nM
- GI50 [13]: 2110 nM
- TGI [13]: 5230 nM
- GI50 [14]: 2070 nM
- TGI [14]: 3770 nM
- GI50 [15]: 1920 nM
- TGI [15]: 4390 nM
- GI50 [16]: 1720 nM
- TGI [16]: 3190 nM
- GI50 [17]: 1790 nM
- TGI [17]: 3550 nM
- GI50 [18]: 2100 nM
- TGI [18]: 4360 nM
- GI50 [19]: 1490 nM
- TGI [19]: 2880 nM
- GI50 [20]: 1820 nM
- TGI [20]: 3800 nM
- GI50 [21]: 1500 nM
- TGI [21]: 3060 nM
- GI50 [22]: 1640 nM
- TGI [22]: 3570 nM
- GI50 [23]: 1520 nM
- TGI [23]: 3710 nM
- GI50 [24]: 1790 nM
- TGI [24]: 3420 nM
- GI50 [25]: 1870 nM
- TGI [25]: 4030 nM
- GI50 [26]: 4020 nM
- TGI [26]: > 100000 nM
- GI50 [27]: 1840 nM
- TGI [27]: 3350 nM
- GI50 [28]: 1470 nM
- TGI [28]: 3370 nM
- GI50 [29]: 1520 nM
- TGI [29]: 2920 nM
- GI50 [30]: 2450 nM
- TGI [30]: 7120 nM
- GI50 [31]: 2070 nM
- TGI [31]: 4540 nM
- GI50 [32]: 1850 nM
- TGI [32]: 5250 nM
- GI50 [33]: 1610 nM
- TGI [33]: 3120 nM
- GI50 [34]: 1930 nM
- TGI [34]: 5750 nM
- GI50 [35]: 1870 nM
- TGI [35]: 3720 nM
- GI50 [36]: 1730 nM
- TGI [36]: 3290 nM
- GI50 [37]: 1410 nM
- TGI [37]: 3200 nM
- GI50 [38]: 1660 nM
- TGI [38]: 3020 nM
- GI50 [39]: 915 nM
- TGI [39]: 3480 nM
- GI50 [40]: 1740 nM
- TGI [40]: 3280 nM
- GI50 [41]: 1810 nM
- TGI [41]: 3400 nM
- GI50 [42]: 1990 nM
- TGI [42]: 4790 nM
- GI50 [43]: 1390 nM
- TGI [43]: 3530 nM
- GI50 [44]: 1740 nM
- TGI [44]: 4790 nM
- GI50 [45]: 1710 nM
- TGI [45]: 3270 nM
- GI50 [46]: 3510 nM
- TGI [46]: 14100 nM
- GI50 [47]: 1760 nM
- TGI [47]: 5700 nM
- GI50 [48]: 1710 nM
- TGI [48]: 3550 nM
- GI50 [49]: 1720 nM
- TGI [49]: 3450 nM
- GI50 [50]: 1690 nM
- TGI [50]: 3080 nM
- GI50 [51]: 1820 nM
- TGI [51]: 3760 nM
- GI50 [52]: 1900 nM
- TGI [52]: 3940 nM
- GI50 [53]: 1660 nM
- TGI [53]: 3230 nM
- GI50 [54]: 2150 nM
- TGI [54]: 4820 nM
- GI50 [55]: 1710 nM
- TGI [55]: 3160 nM
